Experimental findings from US6139840A, “Methods of eliciting an antibody response using flea protease proteins and homologs thereof” (priority 1997, dated 2000) are described below.

The test system of one data set is adult fleas. Description: Flea feeding system: viability and fecundity of fleas fed blood containing protease inhibitors. It is filed as in vivo. The note with it: for Fecundity Days 1-7 / Adult Survival Female / Adult Survival Male / Adult Survival Total: percent of corresponding control group. As to the method: This Example evaluates the effect of a number of protease inhibitors on flea viability and fecundity in a flea feeding system as described by Wade et al. ibid.
Protease inhibitor compounds were tested in groups of 3 to 6 including appropriate control groups. Inhibitors were not tested in groups of common inhibition types. Rather, they were tested in groups based on the diluent needed to dissolve them. (AEBSF, aprotinin, bestatin, leupeptin, phosphoramidon, soybean trypsin inhibitor and soybean trypsin/chymotrypsin inhibitor were dissolved in water; E-64 and pepstatin were dissolved in ethanol). This reduced the number of control (diluent only) groups needed within a particular assay. Inhibitor concentrations were chosen such that the lower concentration used was within the range recommended by the supplier for that inhibitor. The higher concentration was typically 10 times above the lower concentration and was used to look for dose response.
The general protocol for all of the assays was as follows: Approximately 2000 newly emerged adult fleas were placed in feeding chambers to feed on normal blood for about 24 to 48 hr. The fleas were prefed for two reasons: The first was to be certain that only fleas that would feed in the feeding system were used in the comparative study.
The prefed fleas were placed in "minifeeder" feeding chambers at a ratio of about 80 female fleas to about 20 male fleas for a total of about 100 fleas per chamber. Actual total number of fleas per chamber varied from about 90 to 125 fleas. […] Three chambers were prepared for each experimental and control group. A fresh blood meal containing the appropriate inhibitor in 3 ml total volume was placed on each chamber daily through the 7 day extent of an assay.
On days 3, 5, and 7 of the assay, surviving adult fleas were transferred to clean chambers. The contents of the original chambers were dissolved in about 40 ml of PBS (phosphate-buffered saline) in a 50 ml Falcon tube. The contents of a given tube were then filtered through a preweighed #1 Whatman filter disk inserted into a vacuum filter. The 50 ml tube and the filter funnel were rinsed with distilled water which was then passed through the filter. Once the chamber contents had been filtered, dead adult fleas were removed from the filter paper and placed in a labelled tube so that they could be counted and sexed. The filter paper was then placed into a preweighed 12×75 polypropylene tube and dried in the SpeedVac for 2.5 hr with the heater on. After drying the filter paper was weighed. The weight of the filter paper and tube was subtracted to obtain the dry weight of the eggs and this value was converted to an estimated number of eggs using the formula y=41384.361x+162.37, where x=dry weight of eggs.
On day 7, adult fleas that had survived the study were frozen, counted and sexed. The numbers were added to the number of male and female fleas that had died during the assay to verify the number of male and female fleas in each chamber at the start of the study.
Female, male and total adult flea survival were calculated for all experimental and control groups on days 3, 5, and 7 of each assay. Additionally, the number of eggs per surviving female was calculated on days 3, 5 and 7. Female fleas found dead on a given collection date were included in the total number of egg-laying females for the days between that date and the previous collection date, providing a conservative estimate of fecundity. Fecundity values were averaged for the three collection dates to obtain an average for each group over 7 days.
Results of these studies are presented below in Table 1 and FIG. 6 through FIG. 9. All survival and fecundity values are presented below as a percent of control value.

For the next data set, the system named is flea aminopeptidase. Description: Leu-AMC cleavage by serine protease-depleted flea midgut lysate. Type of data set: biochemical. How it is done:
The starting material for the isolation of a flea aminopeptidase was a flea midgut lysate preparation that had been depleted of serine proteases by passage over a benzamidine-Sepharose affinity column. To assay for aminopeptidase activity, the synthetic substrate L-Leucine-AMC (Leu-AMC), which releases a fluorescent AMC leaving group upon proteolytic cleavage, was incubated with the serine protease-depleted flea midgut preparation. Aminopeptidase activity was easily detectable with as little as 1.2 μg of lysate, both confirming the presence of an aminopeptidase (as indicated in other Examples herein) and allowing for the detection of aminopeptidase activity in fractions collected throughout subsequent fractionation and purification procedures.

In a further data set the test system is leucine aminopeptidase. The data set can be described thus: Leu-AMC cleavage by control protease. Type of data set: biochemical. The note with it: 10 mM EDTA, 86 μg/ml bestatin; substrate Leu-AMC.
Data set [1] deals with soluble fed and unfed flea midgut preparations. It is filed as biochemical. The note with it: substrate BAPNA. The source says: Pellets from the centrifugation step were also collected and resuspended for analysis. Also prepared were whole flea lysates.
The test system of another data set is flea midgut proteases. The data set can be described thus: Protease substrate gel analysis of flea midguts with protease inhibitors in the incubation buffers. It is filed as biochemical. How it is done: Protease substrate gels (available from Novex, San Diego, Calif., as Novex Zymogels) were 10% polyacrylamide-SDS gels with 0.1% gelatin. Samples and gels were processed according to Novex instructions. Briefly, samples were diluted in SDS-PAGE sample buffer without reducing agents. Tris-glycine SDS-PAGE was carried out by standard procedures. After electrophoresis, gels were incubated in 0.25% Triton X-100 at room temperature for 30 minutes (min), then in developing buffer (50 mM (millimolar) Tris-HCl pH 7.0, 5 mM CaCl2, 0.02% Brij 35, 0.2 M (molar) NaCl) at room temperature for 30 min, and then incubated with fresh developing buffer at 37° C., usually overnight. Gels were then stained 30 min in 0.5% coomassie R-250, 40% methanol, 10% acetic acid and destained in 40% methanol, 10% acetic acid.
Three unfed female midguts and 0.75 fed female midguts were evaluated in duplicate in several protease substrate gels. Each gel was cut in half. Half was processed as described in Example 2, while the other half contained protease inhibitors in all incubation buffers. The following inhibitors were evaluated:
Mixed-sex fed flea midguts were processed as described in U.S. Pat. No. 5,356,622, ibid. Aliquots of several steps of the procedure were evaluated by loading an equivalent of 0.4 midguts per lane of a protease substrate gel as described in Example 2. Samples were from the low speed supernatant (lanes 2 and 9), sonicated midguts (lanes 3 and 10), high speed supernatant (lanes 4 and 11), combined low and high speed supernatants (FGS) (lanes 5 and 12) and the high speed pellet (lanes 6 and 13). Lanes 7 and 8 contained 50 nanograms (ng) of trypsin as a control. Duplicate lanes were evaluated. The gel was cut in half, and lanes 1-7 were processed as described in Example 2, and lanes 8-14 were processed with 100 μg/ml soybean trypsin inhibitor in all the incubation buffers.

[2] abbreviates: at the concentrations tested in blood meal.

Where two headings read alike, the source gives them in different places.

As to `CC(C)C[C@H](NC(=O)[C@@H](O)[C@H](N)Cc1ccccc1)C(=O)O` [Bestatin], the “Fecundity Days 1-7” value in the data set with adult fleas (1.3 mM in blood meal) is recorded as 60.4%; with adult fleas (13.0 mM in blood meal) it was 23.3%. Moreover, the reduction in fecundity in the data set on adult fleas (1.3 mM in blood meal, significant (p<0.05)) worked out at 40%; in the data set with adult fleas (13 mM in blood meal, significant (p<0.05)), 77%. Besides, the “effect on adult viability” value in the data set with adult fleas (setting [2]) is reported as “no significant effect on adult viability”. Further, in the data set on flea aminopeptidase (1 mM pefabloc, 1 mg/ml trypsin/chymotrypsin inhibitor, 1 mg/ml trypsin inhibitor, 1 mM TPCK, 1 μg/ml pepstatin, 10 μg/ml E-64, 10 μg/ml leupeptin, 10 mM EDTA, 86 μg/ml bestatin, lysate about 1.2 μg and about 12 μg), the “inhibition of the flea protease that cleaved Leu-AMC” value is on record as “inhibited”. In the data set on leucine aminopeptidase, the “inhibition of the control protease” value was “inhibited”.

Turning to `O=C(O)CN(CCN(CC(=O)O)CC(=O)O)CC(=O)O` [EDTA, ethylenediaminetetraacetic acid], in the data set with flea aminopeptidase, the “inhibition of the flea protease that cleaved Leu-AMC” value is given as “Only bestatin inhibited”. Besides, the “inhibition of the control protease” value in the data set on leucine aminopeptidase is listed as “inhibited”.

For the molecule `O=S(=O)(F)Cc1ccccc1` [PMSF, phenylmethane-7-sulfonyl fluoride], in data set [1], the “inhibition of ability to cleave BAPNA (proteolytic activity)” value was “about 50%”.

As to Aprotinin, the “inhibition of ability to cleave BAPNA (proteolytic activity)” value in data set [1] was ~100%. In the data set with adult fleas (2 μg/ml in blood meal), the “Adult Survival Female” value is on record as 103.2%, the “Adult Survival Male” value stood at 104.9%, the “Adult Survival Total” value amounted to 103.3% and the “Fecundity Days 1-7” value is 83.2%. In the data set on adult fleas (20 μg/ml in blood meal), the “Adult Survival Female” value came to 100.0%, the “Adult Survival Male” value was 101.7%, the “Adult Survival Total” value stood at 99.9% and the “Fecundity Days 1-7” value was 84.2%. Further, in the data set with adult fleas (setting [2]), the “effect on adult viability” value is on record as “no significant effect” and the effect on fecundity entry is reported as “no significant effect”.

B1: Soybean Trypsin Inhibitor: serine protease inhibitor, available from Sigma (protein, UniProt P01070 25-205, looked up)
Trypsin inhibitor A: DFVLDNEGNPLENGGTYYILSDITAFGGIRAAPTGNERCPLTVVQSRNELDKGIGTIISSPYRIRFIAEGHPLSLKFDSFAVIMLCVGIPTEWSVVEDLPEGPAVKIGENKDAMDGWFRLERVSDDEFNNYKLVFCPQQAEDDKCGDIGISIDHDDGTRRLVVSKNKPLVVQFQKLDKESL
For B1, the “inhibition of protease activity in protease substrate gel” value with flea midgut proteases (mixed-sex fed flea midgut fractions, 100 μg/ml in all incubation buffers) was “majority of the activity was inhibited”. In the data set with flea midgut proteases (unfed and fed female midguts, AEBSF 1 mM, soybean trypsin inhibitor 100 μg/ml, leupeptin 10 μg/ml in all incubation buffers), the “effect on protease activity in protease substrate gel” value was “only inhibitors to have any effect”. In the data set with adult fleas (10 μg/ml in blood meal), the effect on fecundity result is listed as “no effect”, the “Adult Survival Female” value was found to be 80.1%, the “Adult Survival Male” value came out at 101.7% and the “Adult Survival Total” value is on record as 83.9%. In the data set on adult fleas (10 μg/ml in blood meal), the “Fecundity Days 1-7” value turned out to be 96.1%. Besides, in the data set on adult fleas (100 μg/ml in blood meal), the “Adult Survival Female” value was determined as 76.5%, the “Adult Survival Male” value came out at 76.0%, the “Adult Survival Total” value turned out to be 76.3% and the “Fecundity Days 1-7” value is 79.1%. The reduction in fecundity in the data set with adult fleas (100 μg/ml in blood meal, statistically insignificant) is given as 20%. The “inhibition of the flea protease that cleaved Leu-AMC” value with flea aminopeptidase was “Only bestatin inhibited”.
